Experimental data: BindingDB's records for doi:10.3109/14756366.2011.599029 (Dumlupinar University, 2012)

Tests used:
[1] = target: Carbonic anhydrase 1 (Homo sapiens, UniProt P00915); assay: hCA Activity Assay
[2] = target: Carbonic anhydrase 2 (Homo sapiens, UniProt P00918); assay: hCA Activity Assay

Carbonic anhydrase 1, sequence (P00915 whole entry): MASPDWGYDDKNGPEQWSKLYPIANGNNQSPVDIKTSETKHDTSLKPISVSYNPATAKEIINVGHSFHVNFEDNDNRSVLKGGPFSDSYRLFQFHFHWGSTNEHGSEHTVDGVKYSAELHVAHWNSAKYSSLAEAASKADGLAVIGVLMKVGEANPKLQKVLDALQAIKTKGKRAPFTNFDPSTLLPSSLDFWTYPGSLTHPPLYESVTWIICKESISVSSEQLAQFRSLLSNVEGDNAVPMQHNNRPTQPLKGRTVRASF

Row | Compound | Ki [1] [nM] | Ki [2] [nM]
1 | CC1(C)CC(=O)C2=C(C1)N(c1ccc(S(N)(=O)=O)cc1)C1=C(C(=O)CC(C)(C)C1)C2c1ccccn1 [4-(3,3,6,6-tetramethyl-1,8-dioxo-9-(pyridin-2-yl)-1,2,3,4,5,6,7,8-octahydroacridine-10(9H)-yl)benzenesulfonamide (6)] | 55 | 130
2 | COc1ccc(C2C3=C(CCCC3=O)N(c3ccc(S(N)(=O)=O)cc3)C3=C2C(=O)CCC3)c(OC)c1 [4-(9-(2,4-dimethoxyphenyl)-1,8-dioxo-1,2,3,4,5,6,7,8-octahydroacridine-10(9H)-yl) benzenesulfonamide (7)] | 15 | 1.5
3 | CC1(C)CC(=O)C2=C(C1)N(c1ccc(S(N)(=O)=O)cc1)C1=C(C(=O)CC(C)(C)C1)C2c1ccc(C#N)cc1 [4-(9-(4-Cyanophenyl)-3,3,6,6-tetramethyl-1,8-dioxo-1,2,3,4,5,6,7,8-octahydroacridine-10(9H)-yl)benzenesulfonamide (4)] | 520 | 250
4 | COc1ccc(C2C3=C(CC(C)(C)CC3=O)N(c3ccc(S(N)(=O)=O)cc3)C3=C2C(=O)CC(C)(C)C3)cc1 [4-(9-(4-Methoxyphenyl)-3,3,6,6-tetramethyl-1,8-dioxo-1,2,3,4,5,6,7,8-octahydroacridine-10(9H)-yl)benzenesulfonamide (5)] | 75 | 150
5 | COc1ccc(C2C3=C(CCCC3=O)N(c3ccc(S(N)(=O)=O)cc3)C3=C2C(=O)CCC3)cc1 [4-(9-(4-methoxyphenyl)-1,8-dioxo-1,2,3,4,5,6,7,8-octahydroacridine-10(9H)-yl)benzene sulfonamide (8)] | 8.5 | 7

The next lines start with the values.

Row | Ki [1] [nM] | Ki [2] [nM] | Compound
6 | 220 | 35 | CC1(C)CCC2=C(C1=O)C(c1ccc(Cl)cc1Cl)C1=C(CCC(C)(C)C1=O)N2c1ccc(S(N)(=O)=O)cc1 [4-(9-(2,4-Dichlorophenyl)-2,2,7,7-tetramethyl 1,8-dioxo 1,2,3,4,5,6,7,8-octahydroacridine 10(9H)-yl)benzenesulfonamide (12)]
7 | 205 | 120 | COc1ccc(C2C3=C(CCC(C)(C)C3=O)N(c3ccc(S(N)(=O)=O)cc3)C3=C2C(=O)C(C)(C)CC3)cc1OC [4-(9-(3,4-Dimethoxyphenyl)-2,2,7,7-tetramethyl 1,8-dioxo 1,2,3,4,5,6,7,8-octahydroacridine 10(9H)-yl)benzenesulfonamide (11)]
8 | 135 | 95 | CC1(C)CCC2=C(C1=O)C(c1ccc(C#N)cc1)C1=C(CCC(C)(C)C1=O)N2c1ccc(S(N)(=O)=O)cc1 [4-(9-(4-Cyanophenyl)-2,2,7,7-tetramethyl 1,8-dioxo 1,2,3,4,5,6,7,8-octahydroacridine 10(9H)-yl)benzenesulfonamide (9)]
9 | 45 | 125 | CC1(C)CCC2=C(C1=O)C(c1ccc(O)cc1)C1=C(CCC(C)(C)C1=O)N2c1ccc(S(N)(=O)=O)cc1 [4-(9-(4-Hydroxyphenyl)-2,2,7,7-tetramethyl 1,8-dioxo 1,2,3,4,5,6,7,8-octahydroacridine 10(9H)-yl)benzenesulfonamide (10)]
